In the supplement of paper PMC5579334:

What was measured:
S1507-2 [1] = assay: relative IC50 (inflection point of fitted dose-response curve, CellTox-Green cytotoxicity, 72 h; top asymptote may be below 50%); higher = less potent
Outline: (§1)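 MPNST cell lines and primary human Schwann cells were incubated 72 h at 37 °C in 384-well plates holding five 10-fold compound dilutions. CellTox-Green was added before seeding at a final 1:1000 dilution and reported fluorescence from DNA released by disrupted cells. Signals were scaled to vehicle and positive-control wells, and cultures failing plate quality control were dropped. Drug sensitivity score and relative IC50 come from four-parameter logistic fits, with IC50 censored at the top concentration.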

HSC1 [2] = assay: as above
Outline: as §1

HSC2 [3] = assay: as above
Outline: as §1

STS26T [4] = assay: as above
Outline: as §1

HS-PSS [5] = assay: as above
Outline: as §1

ST8814 [6] = assay: as above
Outline: as §1

S1507-2 [7] = assay: relative IC50 (inflection point of fitted dose-response curve, CellTiter-Glo viability, 72 h; top asymptote may be below 50% inhibition); higher = less potent
Outline: (§2)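 Viability was scored by CellTiter-Glo ATP luminescence, scaled from vehicle to positive-control wells, with duplicates averaged where present. The cells, MPNST lines and primary human Schwann cells at 750–1000 per well, sat 72 h at 37 °C, 5% CO2, in 384-well plates preprinted with each compound at five concentrations in 10-fold steps. Four-parameter logistic fits were run on the data. These fits give drug sensitivity score and relative IC50 censored at the top concentration, and percent inhibition is reported at the top concentration.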

HSC1 [8] = assay: as above
Outline: as §2

HSC2 [9] = assay: as above
Outline: as §2

HS-Sch-2 = assay: as above
Outline: as §2

STS26T [10] = assay: as above
Outline: as §2

HS-PSS [11] = assay: as above
Outline: as §2

YST-1 = assay: as above
Outline: as §2

S462 = assay: as above
Outline: as §2

ST8814 [12] = assay: as above
Outline: as §2

| SMILES | relative IC50 (S1507-2 [1]) [nM] | relative IC50 (HSC1 [2]) [nM] | relative IC50 (HSC2 [3]) [nM] | relative IC50 (STS26T [4]) [nM] | relative IC50 (HS-PSS [5]) [nM] | relative IC50 (ST8814 [6]) [nM] | relative IC50 (S1507-2 [7]) [nM] | relative IC50 (HSC1 [8]) [nM] | relative IC50 (HSC2 [9]) [nM] | relative IC50 (HS-Sch-2) [nM] | relative IC50 (STS26T [10]) [nM] | relative IC50 (HS-PSS [11]) [nM] | relative IC50 (YST-1) [nM] | relative IC50 (S462) [nM] | relative IC50 (ST8814 [12]) [nM] |
| --- | --- | --- | --- | --- | --- | --- | --- | --- | --- | --- | --- | --- | --- | --- | --- |
| CCc1c2c(nc3ccc(OC(=O)N4CCC(N5CCCCC5)CC4)cc13)-c1cc3c(c(=O)n1C2)COC(=O)[C@]3(O)CC [Irinotecan] | 3670 | 2660 | 2240 | 2360 | 2130 | 1940 | 1580 | 406 | 822 | 1340 | 1790 | 2610 | 359 | 1310 | 1210 |
| C/C(=C\c1csc(C)n1)[C@@H]1C[C@@H]2O[C@]2(C)CCC[C@H](C)[C@H](O)[C@@H](C)C(=O)C(C)(C)[C@@H](O)CC(=O)N1 [Ixabepilone] | 370 | 283 | 354 | 316 | > 1000 | 341 | 332 | 115 | 248 | 313 | 350 | 392 | 361 | 335 | 363 |
| O=C(Cc1ccc(-c2ccc(OCCN3CCOCC3)cc2)cn1)NCc1ccccc1 [KX2-391] | 30.2 | 112 | 139 | 23.6 | > 10000 | 33.8 | 46.7 | 52.3 | 73 | 30.5 | 29.4 | 163 | 49.1 | 34.3 | 36.4 |
| c1ccc([C@H]2CN3CCSC3=N2)cc1 [Levamisole] | > 10000 | > 10000 | > 10000 | > 10000 | > 10000 | > 10000 | > 10000 | > 10000 | > 10000 | > 10000 | > 10000 | > 10000 | > 10000 | > 10000 | > 10000 |
| O=NN(CCCl)C(=O)NC1CCCCC1 [Lomustine] | > 10000 | > 10000 | > 10000 | > 10000 | > 10000 | > 10000 | > 10000 | > 10000 | > 10000 | > 10000 | > 10000 | > 10000 | > 10000 | > 10000 | > 10000 |
| CO[C@H]1[C@@H](N(C)C(=O)c2ccccc2)C[C@@H]2O[C@@]1(C)n1c3ccccc3c3c4c(c5c6ccccc6n2c5c31)C(=O)NC4 [Midostaurin] | 395 | 901 | 243 | 323 | > 10000 | 274 | 282 | 112 | 155 | 409 | 436 | 465 | 163 | 580 | 443 |
| Nc1ccccc1NC(=O)c1ccc(CNc2nccc(-c3cccnc3)n2)cc1 [Mocetinostat] | 3730 | 3390 | 2710 | 1720 | 2650 | 3100 | 1840 | 921 | 818 | 1400 | 1400 | 2200 | 530 | 354 | 1610 |
| CCOc1cc2ncc(C#N)c(Nc3ccc(OCc4ccccn4)c(Cl)c3)c2cc1NC(=O)/C=C/CN(C)C [Neratinib] | > 1000 | > 1000 | > 1000 | > 1000 | > 1000 | > 1000 | 187 | 251 | 211 | 184 | 178 | 160 | 327 | 203 | 146 |
| COc1ccccc1S(=O)(=O)Nc1ccc2c(c1)CN(C)C(=O)N2 [PFI-1] | 3630 | > 10000 | > 10000 | > 10000 | > 10000 | 2080 | 1670 | 2820 | 2120 | 1670 | 1470 | 3730 | 1720 | 1710 | 1530 |
| CC(=O)O[C@H]1C(=O)[C@@]2(C)[C@H]([C@H](OC(=O)c3ccccc3)[C@]3(O)C[C@H](OC(=O)[C@H](O)[C@@H](NC(=O)c4ccccc4)c4ccccc4)C(C)=C1C3(C)C)[C@]1(OC(C)=O)CO[C@@H]1C[C@@H]2O [Paclitaxel] | 42.3 | 24.4 | 19 | 1.72 | > 1000 | 25 | 18.5 | 8.18 | 8.36 | 8.71 | 4.63 | 6.92 | 3.83 | 3.84 | 21.7 |
| Cc1[nH]c2ccccc2c1CCNCc1ccc(/C=C/C(=O)NO)cc1 [Panobinostat] | 30.9 | 125 | 122 | 64.9 | 89.1 | 36.6 | 11.2 | 20.8 | 37.2 | 25.4 | 35.4 | 54.8 | 9.07 | 14.2 | 15 |
